Test results: patent US7527935B2, “G-protein coupled receptor having eicosanoid as ligand and gene thereof” (Mitsubishi Tanabe Pharma Corporation, priority 2002, dated 2009)

How the values were obtained:
[1] = biological target: T1, fusion protein of TG1019 protein and Giα1 (351Cys→Ile) (Homo sapiens, UniProt P63096+Q8TDS5, C351I/D111G/K206E/T295A); test: [35S]GTPγS binding to membrane fraction containing TG1019-Giα1 (351Cys→Ile) fusion protein (ligand identification); assay type: biochemical; settings: membrane fraction with TG1019-Giα1 (351Cys→Ile) fusion protein
T1 construct: made in house; host or cells: Sf9 insect cells (baculovirus, pVL1392), membrane fraction
T1 sequence (Q8TDS5+P63096 fused Q8TDS5:D111G/Q8TDS5:K206E/Q8TDS5:T295A/P63096:C351I): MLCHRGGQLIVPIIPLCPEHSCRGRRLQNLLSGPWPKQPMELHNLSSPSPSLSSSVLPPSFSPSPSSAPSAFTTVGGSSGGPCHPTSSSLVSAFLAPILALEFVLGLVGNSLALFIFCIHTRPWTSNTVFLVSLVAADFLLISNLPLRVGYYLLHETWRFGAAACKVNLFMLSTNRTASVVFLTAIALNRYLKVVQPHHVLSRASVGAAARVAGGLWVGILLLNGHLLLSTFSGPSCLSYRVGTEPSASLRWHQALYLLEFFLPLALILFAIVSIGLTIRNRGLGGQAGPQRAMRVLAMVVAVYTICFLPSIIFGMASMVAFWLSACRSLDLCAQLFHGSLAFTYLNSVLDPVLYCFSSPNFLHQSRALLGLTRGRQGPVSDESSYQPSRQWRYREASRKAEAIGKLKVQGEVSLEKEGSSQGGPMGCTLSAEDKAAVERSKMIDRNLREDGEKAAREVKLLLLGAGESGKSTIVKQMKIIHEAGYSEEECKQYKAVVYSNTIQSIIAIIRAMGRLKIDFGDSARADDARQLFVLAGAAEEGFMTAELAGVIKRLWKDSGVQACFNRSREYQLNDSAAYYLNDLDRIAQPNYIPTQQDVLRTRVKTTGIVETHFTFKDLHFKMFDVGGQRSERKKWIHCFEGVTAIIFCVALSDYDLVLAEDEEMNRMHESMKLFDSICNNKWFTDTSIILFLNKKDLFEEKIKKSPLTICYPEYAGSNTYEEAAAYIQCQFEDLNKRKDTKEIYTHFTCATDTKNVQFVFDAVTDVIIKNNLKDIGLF
Excerpt: (§1) As stated in Example 1, it is concluded that TG1019 protein is a G-protein coupled receptor. Therefore, using a membrane fraction containing fused protein of TG1019 and G-protein, a ligand is identified as follows, according to a method for detecting a ligand-dependent binding with GTPγS (guanosine 5′-O-(3-thiotriphosphate)) [Wenzel-Seifert, et al., Mol. Pharmacom., Vol. 58, pp. 954-966, 2000; Bahia, et al., Biochemistry, Vol. 37, pp. 11555-11562, 1998].
Sf9 cells were inoculated onto a 10 cm Petri dish coated with collagen to about 70% confluence, and added thereto were Virus solution III (100 μl) obtained above and 12 ml of a culture medium, and the mixture was cultured at 27° C. for 4 days. The obtained cells were washed with a cooled PBS (Phosphate buffered saline, pH 7.4), and suspended in 3.6 ml of a cooled solution buffer [20 mM Tris-HCl, pH 7.5, 1 mM EDTA, 0.2 mM phenylmethylsulfonyl fluoride, 10 μg/ml pepstatin, 10 μg/ml leupeptin, and 2 μg/ml aprotinin], and the cells were homogenized by means of a Teflon homogenizer. This cell homogenate was centrifuged (600×g, 10 minutes), and the resultant supernatant was further centrifuged (50,000×g, 20 minutes). The obtained sediments were suspended in 450 μl of a cooled reaction buffer [20 mM Tris-HCl, pH 7.5, 50 mM sodium chloride, 10 mM magnesium chloride] by means of a Teflon homogenizer, to prepare a membrane fraction containing a fusion protein.
The membrane fraction (450 μl) obtained above (2) was suspended in a reaction buffer (7.54 ml), and added thereto was GDP (10 mM, 10 μl). To 160 μl of this solution was added 20 μl of a test compound. After incubating the mixture at 30° C. for 10 minutes, 20 μl of [^35S] GTPγS (5 nM, 5 nCi/μl: available from Amersham Pharmacia Biotech) was added to start reaction. After incubating the mixture at 30° C. for one hour, the reaction was terminated by filtration through a glass filter (UniFilter-96GF/B, available from Packard). The filter was washed with 200 μl of a cooled reaction buffer for 3 times, and an amount of the [^35S] GTPγS (a binding amount to the membrane fraction) on the filter was measured by liquid scintillation counting. From the thus measured [^35S] GTPγS binding amount was subtracted a nonspecific binding amount (a binding amount measured in the presence of 10 μM GTPγS), to obtain a specific binding amount of [^35S ] GTPγS.

[2] = biological target: T2, fusion protein of TG1019 protein and Giα1 (Homo sapiens, UniProt P63096+Q8TDS5, C351I/D111G/K206E/T295A); test: Antagonist assay: inhibition of 5-oxo-ETE-stimulated G-protein activation ([35S]GTPγS binding) of TG1019-Giα1 fusion membrane fraction; assay type: biochemical; settings: inhibition of G-protein activating effect of TG1019 by 5-oxo-ETE 0.1 μM
T2 construct: made in house; host or cells: Sf9 insect cells (baculovirus, pVL1392), membrane fraction
T2 sequence (Q8TDS5+P63096 fused Q8TDS5:D111G/Q8TDS5:K206E/Q8TDS5:T295A/P63096:C351I): as above
Procedure: In the presence of 5-oxo-ETE (a ligand which acts as an agonist) and a test compound, a G-protein activating effect of TG1019 protein based on 5-oxo-ETE stimulation was detected, and an antagonistic effect of the test compound was examined.
Detection of the G-protein activation was carried out in a similar manner as in Example 3 (3) mentioned above, using a membrane fraction containing a fusion protein of TG1019 protein and Giα1 and a labeled GTPγS.
Specifically, a membrane fraction (450 μl) containing a fusion protein of TG1019 protein and Giα1 was suspended in a reaction solution (7.54 ml), and added thereto was 10 μl of GDP (10 mM). To 160 μl of this solution were added 5-oxo-ETE (the final concentration of 0.1 μM) and a test compound at various concentrations (0M, 10^−7M -10^−5M), and the mixture was incubated at 30° C. for 10 minutes (a total amount of 5-oxo-ETE and the test compound: 20 μl).
Added thereto was 20 μl of [^35S] GTPγS to start a reaction. After incubation at 30° C. for one hour, the reaction was terminated by filtration through a glass filter.
An amount of the [^35S] GTPγS (a binding amount to the membrane fraction) on the filter was measured by liquid scintillation counting. From the thus measured [^35S] GTPγS amount was subtracted a nonspecific binding amount (a binding amount measured in the presence of 10 μM GTPγS), to obtain a specific binding amount.

[3] = biological target: T3, fusion protein of TG1019 protein and Gqα (Homo sapiens, UniProt Q8TDS5, D111G/K206E/T295A); test: [35S]GTPγS binding to membrane fraction containing TG1019-Gqα fusion protein; assay type: biochemical; settings: membrane fraction with TG1019-Gqα fusion protein; increase small compared to Giα
T3 construct: made in house; host or cells: Sf9 insect cells (baculovirus, pVL1392), membrane fraction
T3 sequence (Q8TDS5 with tags, fused parts or gaps D111G/K206E/T295A): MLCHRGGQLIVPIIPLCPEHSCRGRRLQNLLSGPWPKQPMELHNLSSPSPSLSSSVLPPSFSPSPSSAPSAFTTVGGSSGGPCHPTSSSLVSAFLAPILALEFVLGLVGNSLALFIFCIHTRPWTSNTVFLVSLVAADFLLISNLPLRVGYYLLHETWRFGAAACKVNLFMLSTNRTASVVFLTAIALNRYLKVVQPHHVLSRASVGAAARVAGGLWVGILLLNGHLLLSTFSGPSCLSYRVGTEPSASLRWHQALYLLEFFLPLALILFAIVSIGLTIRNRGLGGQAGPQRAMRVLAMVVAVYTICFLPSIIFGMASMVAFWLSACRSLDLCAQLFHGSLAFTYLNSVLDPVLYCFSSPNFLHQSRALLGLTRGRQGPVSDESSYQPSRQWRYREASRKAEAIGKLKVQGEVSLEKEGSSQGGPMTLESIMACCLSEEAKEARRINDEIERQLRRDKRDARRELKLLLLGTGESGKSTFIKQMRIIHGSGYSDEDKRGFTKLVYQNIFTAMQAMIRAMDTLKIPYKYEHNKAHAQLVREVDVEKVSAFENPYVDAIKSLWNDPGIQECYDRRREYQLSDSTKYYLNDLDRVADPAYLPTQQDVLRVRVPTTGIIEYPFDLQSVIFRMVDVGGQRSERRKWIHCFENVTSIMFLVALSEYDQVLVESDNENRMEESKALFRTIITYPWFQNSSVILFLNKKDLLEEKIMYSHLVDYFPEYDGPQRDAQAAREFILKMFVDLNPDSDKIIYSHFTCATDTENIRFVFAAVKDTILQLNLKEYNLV
Excerpt: as §1
Sf9 cells were inoculated onto a 10 cm Petri dish coated with collagen to about 70% confluence, and added thereto were Virus solution III (100 μl) obtained above and 12 ml of a culture medium, and the mixture was cultured at 27° C. for 4 days. […]
The membrane fraction (450 μl) obtained above (2) was suspended in a reaction buffer (7.54 ml), and added thereto was GDP (10 mM, 10 μl). […] GTPγS (a binding amount to the membrane fraction) on the filter was measured by liquid scintillation counting. From the thus measured [^35S] GTPγS binding amount was subtracted a nonspecific binding amount (a binding amount measured in the presence of 10 μM GTPγS), to obtain a specific binding amount of [^35S ] […]

[4] = test system: TG1019 (5-oxo-ETE receptor); test: Intracellular calcium level in CHO cells stably expressing TG1019; assay type: cell-based, human; settings: FuraII 340/380 nm ratio
Procedure: (1) Preparation of cells stably expressing TG1019 Cells stably expressing TG1019 (the receptor protein of the present invention) and cells not expressing TG1019 were prepared by introducing to CHO cells the TG1019 protein expression vector prepared in Example 5 and the control vector, as described below.
The cells stably expressing TG1019 prepared in the above section (1) was incubated in DMEM/F12 medium supplemented with 10% fetal bovine serum at 37° C. in a CO2 incubator. To the cells which were 80 to 90% confluent, was added a cell dissociation buffer (Cell Dissociation Buffer Enzyme-free PBS-based, available from Invitrogen), and cells were dissociated by incubating at 37° C. for 5 minutes. […]
The cells after loading were centrifuged once with an assay buffer, to remove supernatant, and then, they were suspended in an assay buffer to have a concentration of 3.7 to 6.3×10^6 cells/ml. This cell suspension was portioned into a 96 well plate by 80 μl/well, and the plate was set in a fluorescence measuring device (FDSS6000, [Hamamatsu Photonics]), and the reaction was started by adding a solution containing 5-oxo-ETE or 5-HETE in a 5 fold concentration dissolved in an assay buffer, by 20 μl/well. The measurement was done by measuring fluorescence intensity at 510 nm, with excitation wavelength of 340 nm and 380 nm.

[5] = test system: PC3 human prostate cancer cells; test: Apoptosis analysis (annexin V / PI flow cytometry) in PC3 cells; assay type: cell-based; settings: 20 μl of 1 mM DHA in 2 ml, 2 hours
Procedure: PC3 human prostate cancer cells, which had been cultured in RPMI1640 culture medium supplemented with 10% fetal bovine serum were dissociated by trypsin-EDTA solution (GibcoBRL), and suspended in RPMI1640 culture medium supplemented with 0.5% fetal bovine serum. The cells were plated onto a 6 cm Petri dish to 2×10^5 cells/dish, and cultured at 37° C. for 18 hours in a CO2 incubator. The supernatant was removed and 1980 μl of the same medium was added, and 20 μl of 1 mM DHA was further added thereto, and the mixture was cultured at 37° C. for 2 hours in a CO2 incubator.
In addition, as a test in the presence of 5-oxo-ETE, 1960 μl of RPMI1640 culture medium supplemented with 0.5% fetal bovine serum was added, and 20 μl of a 100 μM 5-oxo-ETE solution and 20 μl of a 1 mM DHA solution were further added thereto, and the cells were cultured in a similar manner as described above.
The adhered cells were removed by a cell scraper, transferred to a 1.5 ml tube, and centrifuged at 800×g for 5 minutes at 4° C., to collect suspended and adhered cells. […] The cells were suspended in 100 μl of a FITC-Annexin solution, and after 15 minutes of reaction under light-shielded condition at room temperature, 300 μl of Binding buffer was added thereto, and the FITC-Annexin bound to the cells and propidium iodide (PI) uptake into the cells were measured, by means of flow cytometer [Becton Dickinson].

Row | IC50 [2] | SMILES | specific binding amount of [35S]GTPγS [1] | also measured
1 |  | CCCCCCCC/C=C\C/C=C\C=C\C(O)CCCC(=O)O (centres unmarked) [5-HETrE, 5-hydroxyeicosa-6E,8Z,11Z-trienoic acid] | increased in a concentration-dependent manner | 
2 | 6 ± 1.2 µM | CC/C=C\C/C=C\C/C=C\C/C=C\C/C=C\CCCC(=O)O [EPA, 5Z, 8Z, 11Z, 14Z, 17Z-eicosapentaenoic acid] |  | 
3 |  | CCCCC/C=C\C/C=C\C/C=C\C/C=C\CCCC(=O)O [arachidonic acid] | increased in a concentration-dependent manner | 
4 | 5.1 ± 0.6 µM | CC/C=C\C/C=C\C/C=C\CCCCCCCCCC(=O)O [Eicosa-11Z, 14Z, 17Z-trienoic acid] |  | 
5 |  | CCCCCCCCC#CCC#CCC#CCCCC(=O)O [ETI, 5,8,11-eicosatriynoic acid] | increased in a concentration-dependent manner | 
6 |  | CCCCC/C=C\C/C=C\C/C=C\C=C\C(CCCC(=O)O)OO (centres unmarked) [5-HPETE, 5-hydroperoxyeicosa-6E,8Z,11Z,14Z-tetraenoic acid] | increased in a concentration-dependent manner | specific binding amount of [35S]GTPγS [3]: increased
7 |  | CCCCC/C=C\C/C=C\C/C=C\C=C\C(O)CCCC(=O)O (centres unmarked) [5-HETE, 5-hydroxyeicosa-6E,8Z,11Z,14Z-tetraenoic acid] | increased in a concentration-dependent manner | change in intracellular calcium level [4]: increase in intracellular calcium level
8 |  | CCCCCCCC/C=C\C/C=C\C/C=C\CCCC(=O)O [eicosa-5Z,8Z,11Z-trienoic acid] | increased in a concentration-dependent manner | 
9 |  | CCCCCCCCCCC/C=C\C/C=C\CCCC(=O)O [eicosa-5Z,8Z-dienoic acid] | increased in a concentration-dependent manner | 
10 | 1.6 ± 0.2 µM | CC/C=C\C/C=C\C/C=C\C/C=C\C/C=C\C/C=C\CCC(=O)O [DHA, 4Z, 7Z, 10Z, 13Z, 16Z, 19Z-docosahexaenoic acid] |  | induction of apoptosis (cells annexin positive, PI uptake negative) [5]: induces apoptosis of PC3 cells

Row | SMILES | IC50 [2] | specific binding amount of [35S]GTPγS [1] | also measured
11 | CCCCC/C=C\C/C=C\C/C=C\CCCCCCC(=O)O [Dihomo-γ-linolenic accid] | 3.7 ± 0.7 µM |  | 
